From patent US20100056524A1, “Compound” (priority 2008, published 2010) come the findings set out here.

SMILES strings stand for the structures. Where a name gives a salt, the structure may show the parent alone. Read-outs that look alike come from different tables or passages of the source.

Common to all, as to assay type: biochemical
In one assay the target is T1, MKK1 (Homo sapiens, UniProt Q02750).
T1 construct: All protein kinases were of human origin and encoded full length proteins, unless indicated otherwise; made in house
T1 sequence (Q02750 whole entry): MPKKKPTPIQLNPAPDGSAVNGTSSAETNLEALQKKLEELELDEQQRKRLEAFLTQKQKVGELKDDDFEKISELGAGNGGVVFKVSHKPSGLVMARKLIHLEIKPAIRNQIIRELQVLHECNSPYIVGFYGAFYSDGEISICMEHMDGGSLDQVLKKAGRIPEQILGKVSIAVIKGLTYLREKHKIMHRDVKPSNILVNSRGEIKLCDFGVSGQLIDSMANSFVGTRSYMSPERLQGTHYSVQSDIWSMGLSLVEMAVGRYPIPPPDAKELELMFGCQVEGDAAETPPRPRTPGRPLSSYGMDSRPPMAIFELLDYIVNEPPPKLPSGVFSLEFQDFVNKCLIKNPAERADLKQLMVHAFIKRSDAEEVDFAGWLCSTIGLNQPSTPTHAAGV
In words: MKK1 protein kinase assay. The settings on record: for remaining activity at 10 µM: 10 μM compound; for residual kinase activity MKK1: 1 μm compound; for remaining activity at 1 µM: 1 μM compound. The text has this: (§1) All protein kinases were of human origin and encoded full length proteins, unless indicated otherwise. They were either expressed as glutathione S-transferase (GST) fusion proteins in Escherichia Coli or as hexahistidine (His6)-tagged proteins in insect Sf21 cells. GST fusion proteins were purified by affinity chromatography on glutathione-Sepharose, and His6-tagged proteins on nickel/nitriloacetate-agarose. The procedures for expressing some of the protein kinases used herein have been detailed previously.^8,9 The following sections outline the DNA vectors synthesised and the procedures used to express and purifying protein kinases that have not been reported previously.
(§2) All assays (25.5 μl) were carried out at room temperature (21° C.) and were linear with respect to time and enzyme concentration under the conditions used. Assays were performed for 30 min using Multidrop Micro reagent dispensers (Thermo Electron Corporation, Waltham, Mass. 02454, USA) in a 96-well format. The concentration of magnesium acetate in the assays was 10 mM and the [γ-33P] ATP (800 cpm/pmol) was used at 5, 20 or 50 μM as indicated, in order to be at or below the Km for ATP for each enzyme. Protein kinases assayed at 5 μM ATP were: —ERK1, ERK8, PKBα, MARK3, Aurora C. Protein kinases assayed at 20 μM ATP were: —JNK1, PDK1, CHK1, CHK2, CDK2 and Aurora B. Protein kinases assayed at 50 μM ATP were: —MNK2, IKKepsilon and TBK1.
(§3) The assays were initiated with MgATP, stopped by addition of 5 μl of 0.5 M orthophosphoric acid and spotted on to P81 filterplates using a unifilter harvester (PerkinElmer, Boston, Mass. 02118, USA). The IC50 values of inhibitors were determined after carrying out assays at 10 different concentrations of each compound.
(§4) Unless stated otherwise, enzymes were diluted in 50 mM Tris/HCl pH 7.5, 0.1 mM EGTA, 1 mg/ml BSA, 0.1% (v/v) 2-mercaptoethanol and assayed in 50 mM Tris/HCl pH 7.5, 0.1 mM EGTA, 0.1% (v/v) 2-mercaptoethanol.

A further assay concerns the target T2, PKA (Homo sapiens, UniProt P17612).
T2 construct: All protein kinases were of human origin and encoded full length proteins, unless indicated otherwise; made in house
The assay can be described thus: PKA protein kinase assay. As to conditions: for remaining activity at 10 µM: 10 μM compound; for residual kinase activity PKA: 1 μm compound; for remaining activity at 1 µM: 1 μM compound.
Excerpt: as §1, §2, §3, §4

The next assay addresses T3, CAMK1 (Homo sapiens, UniProt Q14012).
T3 construct: All protein kinases were of human origin and encoded full length proteins, unless indicated otherwise; made in house
In words: CAMK1 protein kinase assay. The settings on record: for remaining activity at 10 µM: 10 μM compound; for residual kinase activity CAMK1: 1 μm compound; for remaining activity at 1 µM: 1 μM compound.
Excerpt: as §1, §2, §3, §4

The target of a further assay is T4, PIM3 (Homo sapiens, UniProt Q86V86).
T4 construct: All protein kinases were of human origin and encoded full length proteins, unless indicated otherwise; made in house
In words: PIM3 protein kinase assay. The settings on record: for remaining activity at 10 µM: 10 μM compound; for residual kinase activity PIM3: 1 μm compound; for remaining activity at 1 µM: 1 μM compound.
Excerpt: as §1, §2, §3, §4

In the next assay the target is T5, MST2 (Homo sapiens, UniProt Q13188).
T5 construct: All protein kinases were of human origin and encoded full length proteins, unless indicated otherwise; made in house
T5 sequence (Q13188 1-491): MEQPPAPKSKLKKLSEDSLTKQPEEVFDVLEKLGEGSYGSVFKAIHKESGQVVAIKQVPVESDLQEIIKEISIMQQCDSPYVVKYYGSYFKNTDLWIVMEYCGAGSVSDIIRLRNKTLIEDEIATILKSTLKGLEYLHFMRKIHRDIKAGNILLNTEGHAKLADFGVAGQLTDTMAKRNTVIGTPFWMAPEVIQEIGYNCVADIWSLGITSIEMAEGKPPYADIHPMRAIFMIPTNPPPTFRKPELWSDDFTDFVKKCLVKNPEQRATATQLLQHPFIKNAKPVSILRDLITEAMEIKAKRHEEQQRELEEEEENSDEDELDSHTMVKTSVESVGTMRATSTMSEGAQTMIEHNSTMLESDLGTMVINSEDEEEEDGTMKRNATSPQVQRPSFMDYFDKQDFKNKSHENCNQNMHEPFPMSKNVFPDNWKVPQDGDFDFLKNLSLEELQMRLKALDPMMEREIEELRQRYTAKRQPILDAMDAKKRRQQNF
In words: MST2 protein kinase assay. The settings on record: for remaining activity at 10 µM: 10 μM compound; for residual kinase activity MST2: 1 μm compound; for remaining activity at 1 µM: 1 μM compound.
Excerpt: as §1, §2, §3, §4

The next assay addresses T6, PAK4 (Homo sapiens, UniProt O96013).
T6 construct: All protein kinases were of human origin and encoded full length proteins, unless indicated otherwise; made in house
The assay can be described thus: PAK4 protein kinase assay. The settings on record: for remaining activity at 10 µM: 10 μM compound; for residual kinase activity PAK4: 1 μm compound; for remaining activity at 1 µM: 1 μM compound.
Excerpt: as §1, §2, §3, §4

A further assay addresses T7, Src (Homo sapiens, UniProt P12931).
T7 construct: All protein kinases were of human origin and encoded full length proteins, unless indicated otherwise; made in house
The assay can be described thus: Src protein kinase assay. The settings on record: for remaining activity at 10 µM: 10 μM compound; for residual kinase activity Src: 1 μm compound; for remaining activity at 1 µM: 1 μM compound.
Excerpt: as §1, §2, §3, §4

The next assay concerns the target T8, SYK (Homo sapiens, UniProt P43405).
T8 construct: All protein kinases were of human origin and encoded full length proteins, unless indicated otherwise; made in house
The assay can be described thus: SYK protein kinase assay. The settings on record: for remaining activity at 10 µM: 10 μM compound; for residual kinase activity SYK: 1 μm compound; for remaining activity at 1 µM: 1 μM compound.
Excerpt: as §1, §2, §3, §4

For another assay, the target named is T9, BTK (Homo sapiens, UniProt Q06187).
T9 construct: All protein kinases were of human origin and encoded full length proteins, unless indicated otherwise; made in house
T9 sequence (Q06187 whole entry): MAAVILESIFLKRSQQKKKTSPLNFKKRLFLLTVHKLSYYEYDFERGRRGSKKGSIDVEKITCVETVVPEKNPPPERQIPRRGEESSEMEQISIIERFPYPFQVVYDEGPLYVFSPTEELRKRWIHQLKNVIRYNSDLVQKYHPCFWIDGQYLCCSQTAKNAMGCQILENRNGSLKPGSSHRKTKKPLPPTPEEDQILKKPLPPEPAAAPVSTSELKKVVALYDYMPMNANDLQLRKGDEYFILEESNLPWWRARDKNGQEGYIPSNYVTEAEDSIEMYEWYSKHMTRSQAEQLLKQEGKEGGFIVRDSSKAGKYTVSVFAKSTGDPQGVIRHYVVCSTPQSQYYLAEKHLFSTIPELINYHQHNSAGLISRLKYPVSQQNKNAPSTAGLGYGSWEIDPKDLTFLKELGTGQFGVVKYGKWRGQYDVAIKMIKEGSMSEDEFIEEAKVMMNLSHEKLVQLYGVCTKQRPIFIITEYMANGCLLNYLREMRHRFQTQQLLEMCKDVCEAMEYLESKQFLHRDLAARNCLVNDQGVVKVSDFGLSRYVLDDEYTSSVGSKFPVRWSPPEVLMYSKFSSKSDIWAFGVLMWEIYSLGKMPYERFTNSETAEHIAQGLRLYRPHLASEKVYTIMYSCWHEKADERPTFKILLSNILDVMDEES
In words: BTK protein kinase assay. The settings on record: for remaining activity at 10 µM: 10 μM compound; for residual kinase activity BTK: 1 μm compound; for remaining activity at 1 µM: 1 μM compound.
Excerpt: as §1, §2, §3, §4

The mark [1] stands for this setting: read-out: residual kinase activity MKK1.
Setting [2] is: read-out: residual kinase activity PKA.
The mark [3] stands for this setting: read-out: residual kinase activity CAMK1.
The mark [4] stands for this setting: read-out: residual kinase activity PIM3.
Where [5] appears, read: read-out: residual kinase activity MST2.
[6] abbreviates: read-out: residual kinase activity PAK4.
The mark [7] stands for this setting: read-out: residual kinase activity Src.
[8] abbreviates: read-out: residual kinase activity SYK.
Setting [9] is: read-out: residual kinase activity BTK.
The mark [10] stands for this setting: MKK1, read-out: residual kinase activity.
The mark [11] stands for this setting: PKA, read-out: residual kinase activity.
[12] abbreviates: CAMK1, read-out: residual kinase activity.
Where [13] appears, read: PIM3, read-out: residual kinase activity.
The mark [14] stands for this setting: MST2, read-out: residual kinase activity.
Where [15] appears, read: PAK4, read-out: residual kinase activity.
[16] abbreviates: Src, read-out: residual kinase activity.
[17] abbreviates: SYK, read-out: residual kinase activity.
The mark [18] stands for this setting: BTK, read-out: residual kinase activity.

T6 sequence (O96013 whole entry): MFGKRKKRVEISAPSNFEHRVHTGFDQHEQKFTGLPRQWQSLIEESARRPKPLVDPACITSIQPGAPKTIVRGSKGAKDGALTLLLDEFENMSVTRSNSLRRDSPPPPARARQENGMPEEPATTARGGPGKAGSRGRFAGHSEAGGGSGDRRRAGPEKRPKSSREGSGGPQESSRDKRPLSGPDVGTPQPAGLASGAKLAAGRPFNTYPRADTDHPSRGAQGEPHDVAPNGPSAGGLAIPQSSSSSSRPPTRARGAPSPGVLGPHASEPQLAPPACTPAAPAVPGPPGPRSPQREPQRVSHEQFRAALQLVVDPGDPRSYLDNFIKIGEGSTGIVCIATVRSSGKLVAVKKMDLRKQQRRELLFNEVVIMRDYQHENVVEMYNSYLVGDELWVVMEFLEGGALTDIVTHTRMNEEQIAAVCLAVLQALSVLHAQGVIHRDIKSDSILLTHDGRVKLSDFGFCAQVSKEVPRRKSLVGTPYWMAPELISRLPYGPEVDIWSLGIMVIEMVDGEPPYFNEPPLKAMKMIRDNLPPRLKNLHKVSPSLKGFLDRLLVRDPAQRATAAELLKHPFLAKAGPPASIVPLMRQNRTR
T3 sequence (Q14012 whole entry): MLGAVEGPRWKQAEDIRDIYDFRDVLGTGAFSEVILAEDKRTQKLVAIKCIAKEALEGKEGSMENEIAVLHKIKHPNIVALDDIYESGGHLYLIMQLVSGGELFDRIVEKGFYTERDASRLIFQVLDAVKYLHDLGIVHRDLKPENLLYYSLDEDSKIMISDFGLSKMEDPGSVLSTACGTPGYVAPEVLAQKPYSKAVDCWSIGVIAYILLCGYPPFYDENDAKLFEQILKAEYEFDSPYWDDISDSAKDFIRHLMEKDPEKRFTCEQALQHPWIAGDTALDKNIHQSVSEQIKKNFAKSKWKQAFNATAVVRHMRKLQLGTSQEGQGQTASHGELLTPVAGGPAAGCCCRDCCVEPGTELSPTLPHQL
T7 sequence (P12931 whole entry): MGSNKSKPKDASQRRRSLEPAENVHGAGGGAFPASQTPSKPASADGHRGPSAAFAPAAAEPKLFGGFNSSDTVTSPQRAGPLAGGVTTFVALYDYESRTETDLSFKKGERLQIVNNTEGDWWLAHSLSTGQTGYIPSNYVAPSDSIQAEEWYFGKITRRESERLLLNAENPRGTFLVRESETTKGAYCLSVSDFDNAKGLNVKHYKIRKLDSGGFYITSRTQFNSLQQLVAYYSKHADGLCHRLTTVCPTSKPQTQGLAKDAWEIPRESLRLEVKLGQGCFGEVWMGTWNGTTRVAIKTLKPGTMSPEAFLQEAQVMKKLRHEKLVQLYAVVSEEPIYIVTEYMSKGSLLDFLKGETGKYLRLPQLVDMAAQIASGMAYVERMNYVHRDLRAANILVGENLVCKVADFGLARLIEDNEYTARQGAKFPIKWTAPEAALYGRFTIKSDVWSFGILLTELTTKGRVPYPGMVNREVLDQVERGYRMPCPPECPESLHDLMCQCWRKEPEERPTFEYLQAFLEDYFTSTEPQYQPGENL

In the case of `O=C(NCCCNc1nc(Nc2cccc(F)c2)ncc1Br)C1CCC1` [Compound A, cyclobutanecarboxylic acid {3-[5-bromo-2-(3-fluoro-phenylamino)-pyrimidin-4-ylamino]-propyl}-amide, reference compound], the remaining activity at 10 µM was found to be 2% on MKK1 (setting [1]); 22% on PKA (setting [2]); 25% at CAMK1 (setting [3]); 21% on PIM3 (setting [4]); 6% at MST2 (setting [5]); 6% on PAK4 (setting [6]). Moreover, the remaining activity at 10 µM on Src (setting [7]) was found to be 12%; on SYK (setting [8]) it was 4%; at BTK (setting [9]), 33%. The “residual kinase activity MKK1” value at MKK1 came out at 15%. At PKA, the “residual kinase activity PKA” value is 75%. Also, on CAMK1, the “residual kinase activity CAMK1” value is 54%. Further, the “residual kinase activity PIM3” value at PIM3 is given as 78%. In addition, at MST2, the “residual kinase activity MST2” value is recorded as 29%. Moreover, at PAK4, the “residual kinase activity PAK4” value was 32%. For the same compound, the “residual kinase activity Src” value at Src turned out to be 53%. In addition, the “residual kinase activity SYK” value on SYK was 25%. The “residual kinase activity BTK” value on BTK is reported as 94%.
Regarding `O=C(NCCCNc1nc(Nc2cccc(F)c2)ncc1C1CC1)C1CCC1` [Example 23, Cyclobutanecarboxylic acid {3-[5-cyclopropyl-2-(3-fluoro-phenylamino)-pyrimidin-4-ylamino]-propyl}-amide], the remaining activity at 10 µM on MKK1 (setting [1]) came out at 25%; on MKK1 (setting [10]), 25%; on PKA (setting [2]), 73%; at PKA (setting [11]) it was 73%; at CAMK1 (setting [3]), 66%; on CAMK1 (setting [12]), 66%. The remaining activity at 10 µM on PIM3 (setting [4]) is 37%; on PIM3 (setting [13]), 37%; at MST2 (setting [5]), 33%; at MST2 (setting [14]) it was 33%; at PAK4 (setting [6]), 31%; on PAK4 (setting [15]), 31%. Further, the remaining activity at 10 µM worked out at 50% at Src (setting [7]); 50% on Src (setting [16]); 46% on SYK (setting [8]); 46% on SYK (setting [17]); 25% on BTK (setting [9]); 25% on BTK (setting [18]). The “residual kinase activity MKK1” value at MKK1 is 52%. The remaining activity at 1 µM at MKK1 (setting [10]) was 52%; at PKA (setting [11]), 80%; on CAMK1 (setting [12]), 77%; at PIM3 (setting [13]), 73%; on MST2 (setting [14]) it was 73%; on PAK4 (setting [15]), 72%. Besides, the values for the remaining activity at 1 µM at Src (setting [16]), on SYK (setting [17]) and at BTK (setting [18]) were 77%, 87% and 74%, respectively. In addition, the “residual kinase activity PKA” value at PKA came out at 80%. At CAMK1, the “residual kinase activity CAMK1” value stood at 77%. The “residual kinase activity PIM3” value at PIM3 is reported as 73%. The “residual kinase activity MST2” value on MST2 is reported as 73%. Besides, the “residual kinase activity PAK4” value on PAK4 is recorded as 72%. Also, at Src, the “residual kinase activity Src” value came out at 77%. Further, the “residual kinase activity SYK” value at SYK worked out at 87%. Further, at BTK, the “residual kinase activity BTK” value is on record as 74%.
Consider `O=C(NCCCNc1nc(Nc2cccc(N3CCCC3=O)c2)ncc1C1CC1)c1cccs1` [Example 47, Thiophene-2-carboxylic acid (3-{5-cyclopropyl-2-[3-(2-oxo-pyrrolidin-1-yl)-phenylamino]-pyrimidin-4-ylamino}-propyl)-amide. Hydrochloride salt], for which the remaining activity at 1 µM worked out at 33% at MKK1 (setting [10]); 96% at PKA (setting [11]); 91% on CAMK1 (setting [12]); 99% on PIM3 (setting [13]); 84% on MST2 (setting [14]); 80% on PAK4 (setting [15]). The remaining activity at 1 µM is 80% on Src (setting [16]), 82% at SYK (setting [17]) and 93% on BTK (setting [18]). Besides, the remaining activity at 10 µM turned out to be 17% on MKK1 (setting [10]); 80% on PKA (setting [11]); 73% on CAMK1 (setting [12]); 78% at PIM3 (setting [13]); 70% on MST2 (setting [14]); 57% on PAK4 (setting [15]). In addition, the remaining activity at 10 µM was 67% on Src (setting [16]), 49% at SYK (setting [17]) and 61% on BTK (setting [18]).
`O=C(NCCCNc1nc(Nc2cccnc2)ncc1C1CC1)c1cccs1` [Example 50, Thiophene-2-carboxylic acid {3-[5-cyclopropyl-2-(pyridin-3-ylamino)-pyrimidin-4-ylamino]-propyl}-amide]: the remaining activity at 1 µM is 44% at MKK1 (setting [10]); 91% on PKA (setting [11]); 94% at CAMK1 (setting [12]); 102% on PIM3 (setting [13]); 73% on MST2 (setting [14]); 75% on PAK4 (setting [15]). The results for the remaining activity at 1 µM on Src (setting [16]), at SYK (setting [17]) and on BTK (setting [18]) were 84%, 83% and 93%, respectively. Also, the remaining activity at 10 µM at MKK1 (setting [10]) was 24%; on PKA (setting [11]) it was 80%; at CAMK1 (setting [12]), 71%; at PIM3 (setting [13]) it was 50%; at MST2 (setting [14]) it was 33%; at PAK4 (setting [15]) it was 35%. In addition, the figures for the remaining activity at 10 µM on Src (setting [16]), on SYK (setting [17]) and on BTK (setting [18]) were 50%, 60% and 66%, respectively.
